What follows are molecules tested against T1, cloned human H3 receptors, stably expressed in SK-N-MC cells (Homo sapiens, UniProt Q9Y5N1) (assay: H3 Receptor Binding (Human)). Conditions: average of the results obtained.
T1 construct: expressed in transfected cells; host or cells: SK-N-MC cells
Protocol: Binding of compounds to the cloned human H3 receptors, stably expressed in SK-N-MC cells, was performed as described by Barbier, A. J. et al. (Br. J. Pharmacol. 2004, 143(5), 649-661). Data for compounds tested in this assay are presented in Table 1 as an average of the results obtained.

T1 sequence (Q9Y5N1 whole entry): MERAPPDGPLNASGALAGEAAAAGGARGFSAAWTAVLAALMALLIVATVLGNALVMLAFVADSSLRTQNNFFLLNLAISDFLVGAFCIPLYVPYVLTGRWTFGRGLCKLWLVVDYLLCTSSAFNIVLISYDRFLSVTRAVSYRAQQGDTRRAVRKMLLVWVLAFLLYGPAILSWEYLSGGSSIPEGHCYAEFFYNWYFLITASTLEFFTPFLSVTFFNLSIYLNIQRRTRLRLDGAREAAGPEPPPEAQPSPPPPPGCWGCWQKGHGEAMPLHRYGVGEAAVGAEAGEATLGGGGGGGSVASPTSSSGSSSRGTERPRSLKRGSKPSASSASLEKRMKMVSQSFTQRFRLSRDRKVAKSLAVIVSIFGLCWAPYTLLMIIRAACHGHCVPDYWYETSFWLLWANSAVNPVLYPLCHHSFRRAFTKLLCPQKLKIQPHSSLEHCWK

Row | Compound | Ki [µM]
1 | O=C(c1ccc2c(CN3CCN(C4CCCC4)CC3)c[nH]c2c1)N1CCC(CO)CC1 [Example 80, [3-(4-Cyclopentyl-piperazin-1-ylmethy)l-1H-indol-6-yl]-(4-hydroxymethyl-piperidin-1-yl)-methanone] | 0.038
2 | O=C(c1cccc2[nH]cc(CN3CCOCC3)c12)N1CCN(C2CCC2)CC1 [Example 41, (4-Cyclobutyl-piperazin-1-yl)-(3-morpholin-4-ylmethyl-1H-indol-4-yl)-methanone] | 5
3 | O=C(c1ccc2c(CN3CCCN(C4CCC4)CC3)c[nH]c2c1)N1CCCCCC1 [Example 98, Azepan-1-yl-[3-(4-cyclobutyl-[1,4]diazepan-1-ylmethyl)-1H-indol-6-yl]-methanone] | 0.034
4 | CN(C)C1CCN(Cc2c[nH]c3cc(C(=O)N4CCCCCC4)ccc23)C1 (stereo not drawn) [Example 92, Azepan-1-yl-[3-(3-dimethylamino-pyrrolidin-1-ylmethyl)-1H-indol-6-yl]-methanone] | 0.015
5 | CC(C)N1CCN(C(=O)c2ccc3c(CN4CCN(C(=O)c5ccccc5)CC4)c[nH]c3c2)CC1 [Example 63, [3-(4-Benzoyl-piperazin-1-ylmethyl)-1H-indol-6-yl]-(4-isopropyl-piperazin-1-yl)-methanone] | 0.001
6 | CC(=O)N(C)C1CCN(Cc2c[nH]c3cc(C(=O)N4CCN(C(C)C)CC4)ccc23)C1 (stereo not drawn) [Example 60, N-{1-[6-(4-Isopropyl-piperazine-1-carbonyl)-1H-indol-3-ylmethyl]-pyrrolidin-3-yl}-N-methyl-acetamide] | 0.001
7 | CC(C)N1CCN(C(=O)c2ccc3c(CN4CCC(O)(c5ccccc5)CC4)c[nH]c3c2)CC1 [Example 65, [3-(4-Hydroxy-4-phenyl-piperidin-1-ylmethyl)-1H-indol-6-yl]-(4-isopropyl-piperazin-1-yl)-methanone] | 0.001
8 | O=C(c1ccc2c(CN3CCC(N4CCCCC4)CC3)c[nH]c2c1)N1CCOCC1 [Example 73, (3-[1,4′]Bipiperidinyl-1′-ylmethyl-1H-indol-6-yl)-morpholin-4-yl-methanone] | 0.205
9 | CC(C)N1CCCN(Cc2c[nH]c3cc(C(=O)N4CCCCCC4)ccc23)CC1 [Example 95, Azepan-1-yl-[3-(4-isopropyl-[1,4]diazepan-1-ylmethyl)-1H-indol-6-yl]-methanone] | 0.042
10 | O=C(c1ccc2c(CN3CCOCC3)c[nH]c2c1)N1CCc2nc[nH]c2C1 [Example 13, (3-Morpholin-4-ylmethyl-1H-indol-6-yl)-(3,4,6,7-tetrahydro-imidazo[4,5-d]pyridin-5-yl)-methanone] | 2
11 | O=C(c1ccc2c(CN3CCN(C4CCC4)CC3)c[nH]c2c1)N1CCOCC1 [Example 75, [3-(4-Cyclobutyl-piperazin-1-ylmethyl)-1H-indol-6-yl]-morpholin-4-yl-methanone] | 0.043
12 | CN(C)C1CCN(Cc2c[nH]c3cc(C(=O)N4CCC(c5ccccc5)CC4)ccc23)C1 (stereo not drawn) [Example 87, [3-(3-Dimethylamino-pyrrolidin-1-ylmethyl)-1H-indol-6-yl]-(4-phenyl-piperidin-1-yl)-methanone] | 0.02
13 | O=C(c1ccc2c(CN3CCC(N4CCCCC4)CC3)c[nH]c2c1)N1CCSCC1 [Example 67, (3-[1,4′]Bipiperidinyl-1′-ylmethyl-1H-indol-6-yl)-thiomorpholin-4-yl-methanone] | 0.171
14 | CC(C)N1CCN(C(=O)c2ccc3c(CN4CCCCC4)c[nH]c3c2)CC1 [Example 24, (4-Isopropyl-piperazin-1-yl)-(3-piperidin-1-ylmethyl-1H-indol-6-yl)-methanone] | 0.002
15 | CC(C)N1CCN(C(=O)c2ccc3c(CN4CCN(c5ccccn5)CC4)c[nH]c3c2)CC1 [Example 46, (4-Isopropyl-piperazin-1-yl)-[3-(4-pyridin-2-yl-piperazin-1-ylmethyl)-1H-indol-6-yl]-methanone] | 0.003
16 | CC(C)N1CCN(C(=O)c2ccc3c(CN4CCCOCC4)c[nH]c3c2)CC1 [Example 59, (4-Isopropyl-piperazin-1-yl)-(3-[1,4]-oxazepan-4-ylmethyl-1H-indol-6-yl)-methanone] | 0.001
17 | O=C(c1ccc2c(CN3CCC(N4CCCCC4)CC3)c[nH]c2c1)N1CCC(c2ccccc2)CC1 [Example 85, (3-[1,4′]Bipiperidinyl-1′-ylmethyl-1H-indol-6-yl)-(4-phenyl-piperidin-1-yl)-methanone] | 0.081
18 | O=C(c1ccc2scc(CN3CCCCC3)c2c1)N1CCN(C2CCC2)CC1 [Example 103, (4-Cyclobutyl-piperazin-1-yl)-(3-piperidin-1-ylmethyl-benzo[b]thiophen-5-yl)-methanone] | 0.007
19 | O=C(c1ccc2c(CN3CCOCC3)c[nH]c2c1)N1CCC(N2CCCC2=O)CC1 [Example 14, 1-[1-(3-Morpholin-4-ylmethyl-1H-indole-6-carbonyl)-piperidin-4-yl]-pyrrolidin-2-one] | 0.609
20 | O=C(c1ccc2c(CN3CCCN(C4CCC4)CC3)c[nH]c2c1)N1CCC(Cc2ccccc2)CC1 [Example 108, (4-Benzyl-piperidin-1-yl)-[3-(4-cyclobutyl-[1,4]diazepan-1-ylmethyl)-1H-indol-6-yl]-methanone] | 0.016

Row | Compound | Ki [µM]
21 | O=C(c1ccc2c(CN3CCOCC3)c[nH]c2c1)N1CCCN(C2CC2)CC1 [Example 8, (4-Cyclopropyl-[1,4]diazepan-1-yl)-(3-morpholin-4-ylmethyl-1H-indol-6-yl)-methanone] | 0.001
22 | CC(C)N1CCN(C(=O)c2ccc3c(CN4CCN(C(c5ccccc5)c5ccccc5)CC4)c[nH]c3c2)CC1 [Example 53, [3-(4-Benzydryl-piperazin-1-ylmethyl)-1H-indol-6-yl]-(4-isopropyl-piperazin-1-yl)-methanone] | 0.019
23 | O=C(c1ccc2c(CN3CCCCC3)c[nH]c2c1)N1CCc2nc[nH]c2C1 [Example 18, (3-Piperidin-1-ylmethyl-1H-indol-6-yl)-(3,4,6,7-tetrahydro-imidazo[4,5-c]pyridin-5-yl)-methanone] | 5.01
24 | CC(C)N1CCN(C(=O)c2ccc3c(CN4CCN(c5ccc(-c6ccccc6)cc5)CC4)c[nH]c3c2)CC1 [Example 52, [3-(4-Biphenyl-4-yl-piperazin-1-ylmethyl)-1H-indol-6-yl]-(4-isopropyl-piperazin-1-yl)-methanone] | 0.012
25 | O=C(c1ccc2c(CN3CCCN(C4CCC4)CC3)c[nH]c2c1)N1CCSCC1 [Example 71, [3-(4-Cyclobutyl-[1,4]diazepan-1-ylmethyl)-1H-indol-6-yl]-thiomorpholin-4-yl-methanone] | 0.022
26 | CC(C)N1CCN(Cc2c[nH]c3cc(C(=O)N4CCC(CO)CC4)ccc23)CC1 [Example 82, (4-Hydroxymethyl-piperidin-1-yl)-[3-(4-isopropyl-piperazin-1-ylmethyl)-1H-indol-6-yl]-methanone] | 0.034
27 | O=C(NCc1ccncc1)c1ccc2c(CN3CCOCC3)c[nH]c2c1 [Example 11, 3-Morpholin-4-ylmethyl-1H-indole-6-carboxylic acid (pyridin-4-ylmethyl)-amide] | 0.228
28 | CN(C)C1CCN(Cc2c[nH]c3cc(C(=O)N4CCC(Cc5ccccc5)CC4)ccc23)CC1 [Example 100, (4-Benzyl-piperidin-1-yl)-[3-(4-dimethylamino-piperidin-1-ylmethyl)-1H-indol-6-yl]-methanone] | 0.233
29 | CC(C)N1CCN(C(=O)c2cccc3[nH]cc(CN4CCOCC4)c23)CC1 [Example 39, (4-Isopropyl-piperazin-1-yl)-(3-morpholin-4-ylmethyl-1H-indol-4-yl)-methanone] | > 10
30 | O=C(c1ccc2[nH]cc(CN3CCN(C4CCC4)CC3)c2c1)N1CCCCC1 [Example 38, [3-(4-Cyclobutyl-piperazin-1-ylmethyl)-1H-indol-5-yl]-piperidin-1-yl-methanone] | 0.427
31 | O=C(c1ccc2c(CN3CCN(C4CCC4)CC3)c[nH]c2c1)N1CCC(CO)CC1 [Example 81, [3-(4-Cyclobutyl-piperazin-1-ylmethy)l-1H-indol-6-yl]-(4-hydroxymethyl-piperidin-1-yl)-methanone] | 0.017
32 | CC(C)N1CCCN(Cc2c[nH]c3cc(C(=O)N4CCOCC4)ccc23)CC1 [Example 78, [3-(4-Isopropyl-[1,4]diazepan-1-ylmethyl)-1H-indol-6-yl]-morpholin-4-yl-methanone] | 0.042
33 | O=C(c1ccc2c(CN3CCCN(C4CCC4)CC3)c[nH]c2c1)N1CCOCC1 [Example 77, [3-(4-Cyclobutyl-[1,4]diazepan-1-ylmethyl)-1H-indol-6-yl]-morpholin-4-yl-methanone] | 0.038
34 | Cc1cccnc1CNC(=O)c1ccc2c(CN3CCCCC3)c[nH]c2c1 [Example 17, 3-Piperidin-1-ylmethyl-1H-indole-6-carboxylic acid (3-methyl-pyridin-2-ylmethyl)-amide] | 0.114
35 | CN(C)C1CCN(Cc2c[nH]c3cc(C(=O)N4CCC(CO)CC4)ccc23)CC1 [Example 96, [3-(4-Dimethylamino-piperidin-1-ylmethyl)-1H-indol-6-yl]-(4-hydroxymethyl-piperidin-1-yl)-methanone] | 0.439
36 | CC(C)N1CCN(C(=O)c2ccc3[nH]cc(CN4CCCCC4)c3c2)CC1 [Example 32, (4-Isopropyl-piperazin-1-yl)-(3-piperidin-1-ylmethyl-1H-indol-5-yl)-methanone] | 0.034
37 | O=C(c1cccc2c(CN3CCN(C4CCC4)CC3)c[nH]c12)N1CCCCC1 [Example 36, [3-(4-Cyclobutyl-piperazin-1-ylmethyl)-1H-indol-7-yl]-piperidin-1-yl-methanone] | 0.081
38 | CC(C)N1CCN(Cc2c[nH]c3cc(C(=O)N4CCOCC4)ccc23)CC1 [Example 76, [3-(4-Isopropyl-piperazin-1-ylmethyl)-1H-indol-6-yl]-morpholin-4-yl-methanone] | 0.054
39 | CN(C)C1CCN(Cc2c[nH]c3cc(C(=O)N4CCC(c5ccccc5)CC4)ccc23)CC1 [Example 88, [3-(4-Dimethylamino-piperidin-1-ylmethyl)-1H-indol-6-yl]-(4-phenyl-piperidin-1-yl)-methanone] | 0.186
